Results published in patent US7842710B2, “Carboxamides” (Bayer Cropscience AG, priority 2004, dated 2010).

What was measured:
Puccinia recondita = assay: Puccinia test (wheat)/protective; assay type: in vivo; details: 240 h, protective, application rate 500 g/ha, evaluation ten days after inoculation, 0% = control, 100% = no infestation, read-out: Degree of effectiveness in %
Method: [table] To produce an appropriate active ingredient preparation, one part by weight of the active substance is mixed with the specified quantities of solvent and emulsifying agent, and the concentrate is diluted with water to the desired concentration. Young plants are sprayed with the active ingredient preparation at the specified application rate to test the effectiveness of protection. After the sprayed coating has dried, the plants are sprayed with a conidia suspension of Puccinia recondita. The plants are kept in an incubator at 20° C. and 100% relatively humidity for 48 hours. Then the plants are placed in a greenhouse at a temperature of about 20° C. and a relatively humidity of 80%, in order to promote the development of rust spots. The evaluation is performed ten days after the inoculation. A degree of effectiveness rating of 0% corresponds to the control, with 100% indicating no infestation observed.

[1] = logP determination by HPLC on a reverse phase column (C18), EEC Directive 79/831 Annex V.A8; assay type: physicochemical; details: HPLC C18, 43° C., Table 1
Method: The specified logP values are determined by HPLC on a reverse phase column (C18) in accordance with EEC Directive 79/831 Annex V.A8. Temperature: 43° C. Eluents for the measurement in the acid range (pH 2.3): 0.1% aqueous phosphoric acid, acetonitrile; linearer gradient of 10% acetonitrile to 90% acetonitrile. Calibration is performed with unbranched alkyl-2-ones (with 3 to 16 carbon atoms) with known logP values (determination of the logP values based on retention times by linear interpolation between two sequential alkyl ketones).

| logP (pH 2.3) [1] | Compound | pest or weed control at 500 g/ha (Puccinia recondita) [%] |
| --- | --- | --- |
| – | Cc1nn(C)c(F)c1C(=O)Nc1ccccc1C(C)OC(C)C (centres unmarked) | 100 |
| – | CCC(C)SC(C)c1ccccc1NC(=O)c1sccc1C (centres unmarked) | 100 |
| – | CC(C)SC(C)c1ccccc1NC(=O)c1c(C(F)(F)F)nn(C)c1F (centres unmarked) | 96 |
| – | Cc1nn(C)c(Cl)c1C(=O)Nc1ccccc1C(C)SC(C)C (centres unmarked) | 100 |
| – | CCCC(C)SC(C)c1ccccc1NC(=O)c1c(C)nn(C)c1Cl (centres unmarked) | 100 |
| – | Cc1nn(C)c(Cl)c1C(=O)Nc1ccccc1C(C)SC1CCCC1 (centres unmarked) | 100 |
| 3.27 | CC(C)SC(C)c1ccccc1NC(=O)c1cn(C)nc1C(F)(F)F (centres unmarked) [compound 18] | – |
| 2.98 | Cc1nn(C)c(F)c1C(=O)Nc1ccccc1C(C)SC(C)C (centres unmarked) [compound 19] | – |
| 4.03 | Cc1sccc1C(=O)Nc1ccccc1C(C)SC(C)C (centres unmarked) [compound 20] | – |
| 3.74 | CC(C)SC(C)c1ccccc1NC(=O)c1ccccc1Cl (centres unmarked) [compound 21] | – |
| 2.95 | CC(C)SC(C)c1ccccc1NC(=O)c1cccnc1Cl (centres unmarked) [compound 22] | – |
| 3.90 | CC(C)SC(C)c1ccccc1NC(=O)c1ccccc1C(F)(F)F (centres unmarked) [compound 23] | – |
| 3.71 | Cc1occc1C(=O)Nc1ccccc1C(C)SC(C)C (centres unmarked) [compound 24] | – |
| 3.73 | Cc1nc(C(F)(F)F)c(C(=O)Nc2ccccc2C(C)SC(C)C)s1 (centres unmarked) [compound 25] | – |
| 3.27 | Cc1nc(C(F)F)c(C(=O)Nc2ccccc2CSC(C)C)s1 [compound 35] | – |
| 3.05 | CC(C)SCc1ccccc1NC(=O)c1cn(C)nc1C(F)(F)F [compound 36] | – |
| 3.48 | CC(C)SCc1ccccc1NC(=O)C1=C(C(F)(F)F)OCCS1 [compound 37] | – |
| 2.76 | CC(C)SCc1ccccc1NC(=O)c1cn(C)nc1C(F)F [compound 38] | – |
| 3.68 | CC(C)SCc1ccccc1NC(=O)c1ccccc1I [compound 39] | – |
| 3.15 | O=C(Nc1ccccc1COC(=O)C(Cl)Cl)c1ccccc1C(F)(F)F [compound 50] | – |
| 2.39 | Cc1nn(C)c(F)c1C(=O)Nc1ccccc1COC(=O)C(C)C [compound 51] | – |

| logP (pH 2.3) [1] | Compound | pest or weed control at 500 g/ha (Puccinia recondita) [%] |
| --- | --- | --- |
| 2.36 | Cc1nn(C)c(F)c1C(=O)Nc1ccccc1COC(=O)C(Cl)Cl [compound 52] | – |
| 3.24 | CC(C)C(=O)OCc1ccccc1NC(=O)c1ccccc1C(F)(F)F [compound 53] | – |
| 2.51 | CC(C)OCc1ccccc1NC(=O)c1ccccc1C(F)(F)F [compound 54] | – |
| 2.74 | CC(C)C(=O)OCc1ccccc1NC(=O)c1cn(C)nc1C(F)(F)F [compound 55] | – |
| 2.69 | Cn1cc(C(=O)Nc2ccccc2COC(=O)C(Cl)Cl)c(C(F)(F)F)n1 [compound 56] | – |
| 2.38 | CC(C)C(=O)OCc1ccccc1NC(=O)c1cccnc1Cl [compound 57] | – |
| 2.38 | O=C(Nc1ccccc1COC(=O)C(Cl)Cl)c1cccnc1Cl [compound 58] | – |
| 3.49 | CC(C)C(=O)OCc1ccccc1N(C(=O)c1cccnc1Cl)C(=O)C(C)C [compound 59] | – |
| 3.30 | CC(=O)OC(C)(C)CCc1ccccc1NC(=O)c1ccccc1C(F)(F)F [compound 61] | – |
| 1.62 | Cn1cc(C(=O)Nc2ccccc2CCO)c(C(F)(F)F)n1 [compound 62] | – |
| 1.21 | Cc1nn(C)c(F)c1C(=O)Nc1ccccc1CCO [compound 63] | – |
| 2.79 | CC(C)C(=O)OCCc1ccccc1NC(=O)c1cn(C)nc1C(F)(F)F [compound 64] | – |
| 4.59 | Cn1cc(C(=O)Nc2ccccc2CCO[Si](C)(C)C(C)(C)C)c(C(F)(F)F)n1 [compound 65] | – |
| 2.76 | Cn1cc(C(=O)Nc2ccccc2CCOC(=O)C(Cl)Cl)c(C(F)(F)F)n1 [compound 66] | – |
| 2.40 | Cc1nn(C)c(F)c1C(=O)Nc1ccccc1CCOC(=O)C(C)C [compound 67] | – |
| 2.43 | Cc1nn(C)c(F)c1C(=O)Nc1ccccc1CCOC(=O)C(Cl)Cl [compound 68] | – |
| 4.49 | Cc1nn(C)c(F)c1C(=O)Nc1ccccc1CCO[Si](C)(C)C(C)(C)C [compound 69] | – |
| 4.71 | CCCC(C)SC(C)c1ccccc1NC(=O)c1ccccc1C(F)(F)F (centres unmarked) [compound 70] | – |
| 4.60 | CCCC(C)SC(C)c1ccccc1NC(=O)c1ccccc1Cl (centres unmarked) [compound 72] | – |
| 4.17 | CCC(C)SC(C)c1ccccc1NC(=O)c1ccccc1Cl (centres unmarked) [compound 73] | – |
| 4.17 | CCC(C)SC(C)c1ccccc1NC(=O)c1ccoc1C (centres unmarked) [compound 74] | – |

| logP (pH 2.3) [1] | Compound | pest or weed control at 500 g/ha (Puccinia recondita) [%] |
| --- | --- | --- |
| 4.31 | CCC(C)SC(C)c1ccccc1NC(=O)c1ccccc1C(F)(F)F (centres unmarked) [compound 75] | – |
| 4.61 | CCCC(C)SC(C)c1ccccc1NC(=O)c1ccoc1C (centres unmarked) [compound 77] | – |
| 3.95 | CCC(C)SC(C)c1ccccc1NC(=O)c1sc(C)nc1C(F)F (centres unmarked) [compound 78] | – |
| 4.36 | CCCC(C)SC(C)c1ccccc1NC(=O)c1sc(C)nc1C(F)F (centres unmarked) [compound 79] | – |
| 3.38 | CCC(C)SC(C)c1ccccc1NC(=O)c1cn(C)nc1C(F)F (centres unmarked) [compound 80] | – |
| 4.63 | CCCC(C)SC(C)c1ccccc1NC(=O)c1ccccc1Br (centres unmarked) [compound 81] | – |
| 3.27 | CCCC(C)SC(C)c1ccccc1NC(=O)c1cn(C)nc1C (centres unmarked) [compound 82] | – |
| 4.21 | CCC(C)SC(C)c1ccccc1NC(=O)c1ccccc1Br (centres unmarked) [compound 83] | – |
| 2.90 | CCC(C)SC(C)c1ccccc1NC(=O)c1cn(C)nc1C (centres unmarked) [compound 84] | – |
| 3.76 | CCCC(C)SC(C)c1ccccc1NC(=O)c1cn(C)nc1C(F)F (centres unmarked) [compound 85] | – |
| 4.07 | CCC(C)SC(C)c1ccccc1NC(=O)C1=C(C)OCCS1 (centres unmarked) [compound 86] | – |
| 4.53 | CCCC(C)SC(C)c1ccccc1NC(=O)C1=C(C)OCCS1 (centres unmarked) [compound 87] | – |
| 3.92 | CCC(C)SC(C)c1ccccc1NC(=O)c1cn(C)cc1C(F)(F)F (centres unmarked) [compound 88] | – |
| 4.10 | CCC(C)SC(C)c1ccccc1NC(=O)C1=C(C)OCCS1 (centres unmarked) [compound 89] | – |
| 3.16 | Cc1sccc1C(=O)Nc1ccccc1C(C)SC1CCCC1 (centres unmarked) [compound 90] | – |
| 4.31 | Cc1occc1C(=O)Nc1ccccc1C(C)SC1CCCC1 (centres unmarked) [compound 91] | – |
| 4.29 | CC(SC1CCCC1)c1ccccc1NC(=O)c1ccccc1Cl (centres unmarked) [compound 92] | – |
| 4.34 | CC(SC1CCCC1)c1ccccc1NC(=O)c1ccccc1Br (centres unmarked) [compound 93] | – |
| 4.24 | Cc1nc(C(F)(F)F)c(C(=O)Nc2ccccc2C(C)SC2CCCC2)s1 (centres unmarked) [compound 94] | – |
| 3.04 | Cc1nn(C)cc1C(=O)Nc1ccccc1C(C)SC1CCCC1 (centres unmarked) [compound 95] | – |
| 3.76 | CC(SC1CCCC1)c1ccccc1NC(=O)c1cn(C)nc1C(F)(F)F (centres unmarked) [compound 96] | – |

| logP (pH 2.3) [1] | Compound | pest or weed control at 500 g/ha (Puccinia recondita) [%] |
| --- | --- | --- |
| 4.41 | CC(SC1CCCC1)c1ccccc1NC(=O)c1ccccc1C(F)(F)F (centres unmarked) [compound 97] | – |
| 3.65 | CC1=C(C(=O)Nc2ccccc2C(C)SC(C)C)SCCO1 (centres unmarked) [compound 98] | – |
| 4.44 | Cc1ccccc1C(=O)Nc1ccccc1C(C)SC1CCCC1 (centres unmarked) [compound 99] | – |
| 4.03 | Cc1nn(C)c(F)c1C(=O)Nc1ccccc1C(C)SC1CCCC1 (centres unmarked) [compound 100] | – |
| 3.48 | CC(SC1CCCC1)c1ccccc1NC(=O)c1cn(C)nc1C(F)F (centres unmarked) [compound 101] | – |
| 3.80 | Cc1occc1C(=O)Nc1ccccc1C(C)OC(C)C (centres unmarked) [compound 126] | – |
| 3.14 | CC(C)OC(C)c1ccccc1NC(=O)c1cn(C)nc1C(F)(F)F (centres unmarked) [compound 127] | – |
| 3.47 | CC1=C(C(=O)Nc2ccccc2C(C)OC(C)C)SCCO1 (centres unmarked) [compound 128] | – |
| 2.75 | CC(C)OC(C)c1ccccc1NC(=O)c1cn(C)nc1I (centres unmarked) [compound 129] | – |
| 3.83 | CC(C)OC(C)c1ccccc1NC(=O)c1ccccc1I (centres unmarked) [compound 130] | – |
| 3.58 | Cc1nc(C(F)F)c(C(=O)Nc2ccccc2C(C)OC(C)C)s1 (centres unmarked) [compound 131] | – |
| 2.72 | CC(C)OC(C)c1ccccc1NC(=O)c1cccnc1Cl (centres unmarked) [compound 132] | – |
| 3.65 | Cc1nc(C(F)(F)F)c(C(=O)Nc2ccccc2C(C)OC(C)C)s1 (centres unmarked) [compound 133] | – |
| 3.81 | CC(C)OC(C)c1ccccc1NC(=O)c1ccccc1C(F)(F)F (centres unmarked) [compound 134] | – |
| 2.89 | CC(C)OC(C)c1ccccc1NC(=O)c1cn(C)nc1C(F)F (centres unmarked) [compound 135] | – |
| 3.67 | CC(C)OC(C)c1ccccc1NC(=O)c1cnn(C)c1C(F)F (centres unmarked) [compound 136] | – |
| 3.64 | CC(C)OC(C)c1ccccc1NC(=O)C1=C(C(F)(F)F)OCCS1 (centres unmarked) [compound 137] | – |
| 5.60 | CC(C)OC(C)c1ccccc1NC(=O)c1cn(C)cc1C(F)(F)F (centres unmarked) [compound 138] | – |
| 1.61 | Cn1cc(C(=O)Nc2ccccc2CO)c(C(F)(F)F)n1 [compound 178] | – |
| – | CC(C)SC(C)c1ccccc1NC(=O)c1cn(C)nc1C(F)(F)F (centres unmarked) [drawing 494] | 100 |
